# Patent publication US5043166A, “Liposome/anthraquinone drug composition and method” (priority 1989, dated 1991)
# Like-named read-outs stand apart in the source and are kept apart here.
# How the values were obtained:
# Sabra mice = test: blood biochemistry after repeated administration; assay type: in vivo
# Protocol: Sabra mice were divided into groups of 15 mice. Three different doses of either F-DXR or L-DXR were tested: 5, 7.5, and 10 mg/kg body weight. Each dose level was tested on 15 male and 15 female mice. Treatment was administered as a bolus injection through the tail vein on days 0, 14, 28, 42, 56, 70, 84, and 98 of the experiment. The pulsed injection scheme was used for the purpose of achieving high cumulative doses, prolonging the period of exposure of the animals to the drug, and mimicking the way DXR is usually administered in clinical practice. In view of the toxicity observed after single injection (Example XI), DXR was administered at a maximum 10 mg/kg dosage so that the occurrence of acute toxicity would be reduced or nil. In order to avoid the overlapping myelosuppression of successive treatment, 14 days were allowed between successive injections, based on previous observations that full regeneration of the activity of myeloid centers in the spleen after treatment with 10 mg/kg of DXR occurred between 7-12 days after drug administration.
# During the course of the experiment, mice were inspected daily and survival curves were recorded. Whenever possible, dead mice were autopsied and a limited sample of organs sent for histopathological examination. Blood counts and body weights were checked weekly. The blood counts were done in a Coulter analyzer with a 20 μl sample obtained from the retro-orbital blood sinuses. One-third of the mice of each group were sacrificed on day 42, after 3 injections. A second third was sacrificed on day 84, after 6 injections. The remaining mice were sacrificed on day 180, 82 days after the 8the and last injection. Before sacrifice, the mice were bled under light ether anesthesia to obtain serum for the biochemical tests. The animals were then dissected and the removed organs, after weighing, were fixed in Bouin's solution and processed for light microscopy examination with hematoxylin-eosin-phosphomolybdic acid: light green stain.
# d) Effects on Blood Biochemistry Values. Blood levels of glucose, cholesterol, triglycerides, urea, uric acid, creatine, and total protein were measured at 42, 84, and 180 day time points. Blood enzyme levels of alkaline phosphatase, aspartate aminotransferase, and alanine aminotransferase were also assayed at these time points.
# The most important differences in blood chemistry between F-DXR and L-DXR administration occurred in blood glucose, cholesterol, and triglyceride levels. These differences are seen in Table III below, which gives data on female mice receiving 10 mg/kg of either F-DXR or L-DXR. Glucose, cholesterol, and triglyceride levels are expressed as percent control (untreated) animals, and "nm" means "not measured".
# [1] = cited from earlier work
# [2] = organ distribution of DXR after administration free or in liposomes; assay type: in vivo
# [3] = heart, read-out: DXR level in Heart
# [4] = intestine, read-out: DXR level in Intestine
# [5] = kidney, read-out: DXR level in Kidney
# [6] = liver, read-out: DXR level in Liver
# [7] = lungs, read-out: DXR level in Lungs
# [8] = skeletal muscle, read-out: DXR level in Skeletal Muscle
# [9] = spleen, read-out: DXR level in Spleen
smiles,measurement,setting,value
"COc1cccc2c1C(=O)c1c(O)c3c(c(O)c1C2=O)C[C@@](O)(C(=O)CO)C[C@@H]3O[C@H]1C[C@H](N)[C@H](O)[C@H](C)O1 [DXR, doxorubicin]",blood cholesterol,Sabra mice; 10 mg/kg,hypercholesterolemia
same,blood glucose,Sabra mice; 10 mg/kg,decreased blood glucose
same,blood triglyceride,Sabra mice; 10 mg/kg,hyperglyceridemia
same,creatine levels,"Sabra mice; 7.5 and 5 mg/kg, 180 days",increased creatine levels
same,alanine aminotransferase,Sabra mice; 180 days,a drop in alanine aminotransferase
same,"Cholesterol, percent control (untreated)","Sabra mice; female, day 42, 10 mg/kg",300 percent control
same,"Glucose, percent control (untreated)","Sabra mice; female, day 42, 10 mg/kg",97 percent control
same,"Cholesterol, percent control (untreated)","Sabra mice; female, day 84, 10 mg/kg",383 percent control
same,"Glucose, percent control (untreated)","Sabra mice; female, day 84, 10 mg/kg",57 percent control
same,"Triglyceride, percent control (untreated)","Sabra mice; female, day 84, 10 mg/kg",416 percent control
same,liver enzymes (alkaline phosphatase and aminotransferases),"Sabra mice; mouse, in vivo",Increased liver enzymes
same,cardiac toxicity on repeated administration,[1]; repeated administration,cumulative and irreversible cardiac damage
same,acute toxicity,[1]; soluble form,"malaise, nausea, vomiting myelosuppression, and severe alopecia"
same,concentration at 1 h,[2]; [3],8400 ng/g
same,concentration at 5 h,[2]; [3],4200 ng/g
same,concentration at 24 h,[2]; [3],900 ng/g
same,concentration at 1 h,[2]; [4],5800 ng/g
same,concentration at 5 h,[2]; [4],3100 ng/g
same,concentration at 24 h,[2]; [4],1900 ng/g
same,concentration at 1 h,[2]; [5],31900 ng/g
same,concentration at 5 h,[2]; [5],19400 ng/g
same,concentration at 24 h,[2]; [5],6900 ng/g
same,concentration at 1 h,[2]; [6],30500 ng/g
same,concentration at 5 h,[2]; [6],16400 ng/g
same,concentration at 24 h,[2]; [6],3800 ng/g
same,concentration at 1 h,[2]; [7],13200 ng/g
same,concentration at 5 h,[2]; [7],8600 ng/g
same,concentration at 24 h,[2]; [7],3600 ng/g
same,concentration at 1 h,[2]; [8],2300 ng/g
same,concentration at 5 h,[2]; [8],2800 ng/g
same,concentration at 24 h,[2]; [8],590 ng/g
same,concentration at 1 h,[2]; [9],8100 ng/g
same,concentration at 5 h,[2]; [9],10700 ng/g
same,concentration at 24 h,[2]; [9],8800 ng/g
